Assay results taken from US20260265265A1, “NOVEL BENZIMIDAZOLONE DERIVATIVE COMPOUND AS AUTOTAXIN INHIBITOR” (LG CHEM, LTD., priority 2023, published 2026).

Target: T1, Recombinant Human ENPP-2/Autotaxin (Homo sapiens, UniProt Q13822)
T1 construct: purchased R&D systems 5255-EN
Experiment: LysoPLD activity measurement (autotaxin enzyme inhibition, choline release, TOOS reagent)
Assay type: biochemical
Conditions: LysoPLD inhibitory activity; substrate 14:0 LysoPC; absorbance at 555 nm
How it was run: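 Autotaxin lysoPLD activity was read as choline released from 14:0 LysoPC, detected by TOOS reagent absorbance. Compound was preincubated 30 min, then substrate diluted to 300 μM was added and the reaction ran 90 minutes at 37° C. Controls contained 1% DMSO.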

IC50 | SMILES
10 to 100 nM | O=C(O)c1c(F)ccc(Cn2c(=O)n(-c3ccc(N4CCOCC4)cc3)c3c(F)c(Cl)ccc32)c1F [Example 204, 3-((5-chloro-4-fluoro-3-(4-morpholinophenyl)-2-oxo-2,3-dihydro-1H-benzo[d]imidazol-1-yl)methyl)-2,6-difluorobenzoic acid]
10 to 100 nM | CC(C)(c1cccc(C(=O)O)c1)n1c(=O)n(-c2ccc(C3CCOCC3)cc2)c2cc(Cl)ccc21 [Example 158, 3-(2-(5-chloro-2-oxo-3-(4-(tetrahydro-2H-pyran-4-yl)phenyl)-2,3-dihydro-1H-benzo[d]imidazol-1-yl)propan-2-yl)benzoic acid]
< 10 nM | CC1(c2ccc(-n3c(=O)n(C4(c5cccc(C(=O)O)c5)CC4)c4ccc(Cl)cc43)cc2)COC1 [Example 247, 3-(1-(5-chloro-3-(4-(3-methyloxetan-3-yl)phenyl)-2-oxo-2,3-dihydro-1H-benzo[d]imidazol-1-yl)cyclopropyl)benzoic acid]
< 10 nM | O=C(O)c1cccc(C2(n3c(=O)n(-c4ccc(CN5CCCC5=O)cc4)c4cc(Cl)ccc43)CC2)c1 [Example 236, 3-(1-(5-chloro-2-oxo-3-(4-((2-oxopyrrolidin-1-yl)methyl)phenyl)-2,3-dihydro-1H-benzo[d]imidazol-1-yl)cyclopropyl)benzoic acid]
< 10 nM | C[C@@H]1COCCN1C(=O)Cc1ccc(-n2c(=O)n(C3(c4cccc(C(=O)O)c4)CC3)c3ccc(Cl)cc32)cc1 [Example 178, (R)-3-(1-(5-chloro-3-(4-(2-(3-methylmorpholino)-2-oxoethyl)phenyl)-2-oxo-2,3-dihydro-1H-benzo[d]imidazol-1-yl)cyclopropyl)benzoic acid]
10 to 100 nM | O=C(O)c1cccc(Cn2c(=O)n(-c3ccc(N4CCN(C(=O)C5CCC(F)(F)CC5)CC4)cc3)c3cc(Cl)ccc32)c1F [Example 143, 3-((5-chloro-3-(4-(4-(4,4-difluorocyclohexane-1-carbonyl)piperazin-1-yl)phenyl)-2-oxo-2,3-dihydro-1H-benzo[d]imidazol-1-yl)methyl)-2-fluorobenzoic acid]
< 10 nM | O=C(O)c1cccc(C2(n3c(=O)n(-c4ccc(-c5nnc(C6CCCC6)o5)cc4)c4cc(Cl)ccc43)CC2)c1 [Example 266, 3-(1-(5-chloro-3-(4-(5-cyclopentyl-1,3,4-oxadiazol-2-yl)phenyl)-2-oxo-2,3-dihydro-1H-benzo[d]imidazol-1-yl)cyclopropyl)benzoic acid]
< 10 nM | O=C(O)c1cccc(C2(n3c(=O)n(-c4ccc(C(=O)N5CCC(F)(F)CC5)cc4)c4cc(Cl)ccc43)CC2)c1 [Example 131, 3-(1-(5-chloro-3-(4-(4,4-difluoropiperidine-1-carbonyl)phenyl)-2-oxo-2,3-dihydro-1H-benzo[d]imidazol-1-yl)cyclopropyl)benzoic acid]
< 10 nM | O=C(O)c1cccc(C2(n3c(=O)n(-c4ccc(C(=O)N5CCC(F)(F)C5)cc4)c4cc(Cl)ccc43)CC2)c1F [Example 132, 3-(1-(5-chloro-3-(4-(3,3-difluoropyrrolidine-1-carbonyl)phenyl)-2-oxo-2,3-dihydro-1H-benzo[d]imidazol-1-yl)cyclopropyl)-2-fluorobenzoic acid]
< 10 nM | O=C(O)c1cccc(C2(n3c(=O)n(-c4ccc(S(=O)(=O)N5CCCCC5)cc4)c4cc(Cl)ccc43)CC2)c1 [Example 214]
100 to 1000 nM | O=C(O)c1cccc(C2(n3c(=O)n(-c4ccc(Cn5ccc(C(F)(F)F)n5)cc4)c4cc(Cl)ccc43)CC2)c1 [Example 244, 3-(1-(5-chloro-2-oxo-3-(4-((3-(trifluoromethyl)-1H-pyrazol-1-yl)methyl)phenyl)-2,3-dihydro-1H-benzo[d]imidazol-1-yl)cyclopropyl)benzoic acid]
10 to 100 nM | O=C(O)c1cccc(C2(n3c(=O)n(-c4nc5ccccc5s4)c4cc(Cl)ccc43)CC2)c1F [Example 144, 3-(1-(3-(benzo[d]thiazol-2-yl)-5-chloro-2-oxo-2,3-dihydro-1H-benzo[d]imidazol-1-yl)cyclopropyl)-2-fluorobenzoic acid]
10 to 100 nM | O=C(O)c1cccc(Cn2c(=O)n(-c3ccc(C4CCN(C(=O)C5CCC5)CC4)cc3)c3c(F)c(Cl)ccc32)c1F [Example 152, 3-((5-chloro-3-(4-(1-(cyclobutanecarbonyl)piperidin-4-yl)phenyl)-4-fluoro-2-oxo-2,3-dihydro-1H-benzo[d]imidazol-1-yl)methyl)-2-fluorobenzoic acid]

Continued, compound first:

SMILES | IC50
O=C(O)c1cccc(C2(n3c(=O)n(-c4ccc(C(=O)N5CC(F)(F)C5)cc4)c4cc(Cl)ccc43)CC2)c1 [Example 129, 3-(1-(5-chloro-3-(4-(3,3-difluoroazetidine-1-carbonyl)phenyl)-2-oxo-2,3-dihydro-1H-benzo[d]imidazol-1-yl)cyclopropyl)benzoic acid] | < 10 nM
CC(C)OC(=O)N1CCN(c2ccc(-n3c(=O)n(Cc4cccc(C(=O)O)c4)c4ccc(Cl)cc43)cc2)CC1 [Example 96, 3-((5-chloro-3-(4-(4-(isopropoxycarbonyl)piperazin-1-yl)phenyl)-2-oxo-2,3-dihydro-1H-benzo[d]imidazol-1-yl)methyl)benzoic acid] | 10 to 100 nM
CN(C)c1ccc(-n2c(=O)n(C3(c4cccc(C(=O)O)c4)CC3)c3ccc(Cl)cc32)cc1 [Example 69, 3-(1-(5-chloro-3-(4-(dimethylamino)phenyl)-2-oxo-2,3-dihydro-1H-benzo[d]imidazol-1-yl)cyclopropyl)benzoic acid] | < 10 nM
CC(C)n1cc(-n2c(=O)n(Cc3cccc(C(=O)O)c3)c3ccc(Cl)cc32)cn1 [Example 89, 3-((5-chloro-3-(1-isopropyl-1H-pyrazol-4-yl)-2-oxo-2,3-dihydro-1H-benzo[d]imidazol-1-yl)methyl)benzoic acid] | 100 to 1000 nM
COC1CCN(C(=O)c2ccc(-n3c(=O)n(Cc4cccc(C(=O)O)c4)c4ccc(Cl)cc43)cc2)CC1 [Example 62, 3-((5-chloro-3-(4-(4-methoxypiperidine-1-carbonyl)phenyl)-2-oxo-2,3-dihydro-1H-benzo[d]imidazol-1-yl)methyl)benzoic acid] | < 10 nM
O=C(O)c1cccc(Cn2c(=O)n(-c3ccc(N4CCOCC4)cc3)c3c(F)c(Cl)ccc32)c1F [Example 51, 3-((5-chloro-4-fluoro-3-(4-morpholinophenyl)-2-oxo-2,3-dihydro-1H-benzo[d]imidazol-1-yl)methyl)-2-fluorobenzoic acid] | < 10 nM
O=C(O)c1cccc(C2(n3c(=O)n(-c4ccc(C5=CCOC5)cc4)c4cc(Cl)ccc43)CC2)c1F [Example 123, 3-(1-(5-chloro-3-(4-(2,5-dihydrofuran-3-yl)phenyl)-2-oxo-2,3-dihydro-1H-benzo[d]imidazol-1-yl)cyclopropyl)-2-fluorobenzoic acid] | < 10 nM
O=C(O)c1ccc(Cn2c(=O)n(-c3ccc(N4CCOCC4)cc3)c3c(F)c(Cl)ccc32)cc1 [Example 125, 4-((5-chloro-4-fluoro-3-(4-morpholinophenyl)-2-oxo-2,3-dihydro-1H-benzo[d]imidazol-1-yl)methyl)benzoic acid] | 100 to 1000 nM
O=C(O)c1cccc(Cn2c(=O)n(-c3ccc(C4CCOCC4)cc3)c3cc(Cl)ccc32)c1 [Example 103, 3-((5-chloro-2-oxo-3-(4-(tetrahydro-2H-pyran-4-yl)phenyl)-2,3-dihydro-1H-benzo[d]imidazol-1-yl)methyl)benzoic acid] | 10 to 100 nM
O=C(O)c1cccc(C2(n3c(=O)n(-c4ccc(C(=O)N5CCOCC5)cc4)c4cc(Cl)ccc43)CC2)c1 [Example 126, 3-(1-(5-chloro-3-(4-(morpholine-4-carbonyl)phenyl)-2-oxo-2,3-dihydro-1H-benzo[d]imidazol-1-yl)cyclopropyl)benzoic acid] | < 10 nM
O=C(O)c1cccc(Cn2c(=O)n(-c3ccc(C4CCOCC4)cc3)c3cc(Cl)ccc32)c1F [Example 108, 3-((5-chloro-2-oxo-3-(4-(tetrahydro-2H-pyran-4-yl)phenyl)-2,3-dihydro-1H-benzo[d]imidazol-1-yl)methyl)-2-fluorobenzoic acid] | 10 to 100 nM
O=C(O)c1cccc(Cn2c(=O)n(-c3ccc(OCC4CCC4)c(F)c3)c3cc(Cl)ccc32)c1 [Example 30, 3-((5-chloro-3-(4-(cyclobutylmethoxy)-3-fluorophenyl)-2-oxo-2,3-dihydro-1H-benzo[d]imidazol-1-yl)methyl)benzoic acid] | 100 to 1000 nM
O=C(O)c1cccc(C2(n3c(=O)n(-c4ccc(C5CCCCC5)cc4)c4cc(Cl)ccc43)CC2)c1 [Example 98, 3-(1-(5-chloro-3-(4-cyclohexylphenyl)-2-oxo-2,3-dihydro-1H-benzo[d]imidazol-1-yl)cyclopropyl)benzoic acid] | 100 to 1000 nM
